Source: patent US20240261271A1, “APPLICATION OF HYDRONIDONE IN PREPARATION OF DRUG FOR TREATING OR PREVENTING CHRONIC HEPATITIS B WITH LIVER FIBROSIS” (priority 2021, published 2024)
Where “and” joins values, the source holds several entries; their conditions need not be identical. Equal values may be shown once.

Tested on: chronic hepatitis B with hepatic fibrosis
Experiment: Phase II clinical study: hepatic fibrosis Ishak score by liver biopsy, before and after 52 weeks of treatment on entecavir basic treatment
Assay type: in vivo, human
Details: for Rate difference (B-C) % and 95% CI, Ishak score decreased by ≥1: 360 mg group minus 180 mg group; for Rate difference (B-C) % and 95% CI, Ishak score decreased by ≥1 / Rate difference (B-D) % and 95% CI, Ishak score decreased by ≥1: 52 weeks; for Rate difference (B-D) % and 95% CI, Ishak score decreased by ≥1: 360 mg group minus 270 mg group
Description: This is a randomized, double-blind, placebo-controlled, multicenter, and dose-finding phase II clinical study with foundational treatment. In the clinical trial, three different dose test groups and a placebo control group were set on the basis of the entecavir capsule antiviral treatment, and the planned sample amount of each group was 60 cases, totaling 240 cases. The three dose test groups were 180 mg group, 270 mg group, and 360 mg group, respectively. […]

[1] = 270 mg group, PPS, 52 weeks of treatment, baseline Ishak score ≥3
[2] = 270 mg group, PPS, all subjects
[3] = 270 mg group, PPS, screening period-follow-up 15 (52 weeks), baseline Ishak score ≥3
[4] = 360 mg group, FAS, 52 weeks of treatment vs baseline, all subjects
[5] = 360 mg group, FAS, 52 weeks of treatment, all subjects
[6] = 360 mg group, FAS, 52 weeks of treatment, baseline Ishak score ≥3
[7] = 360 mg group, FAS, all subjects
[8] = 360 mg group, FAS, screening period-follow-up 15 (52 weeks), baseline Ishak score ≥3
[9] = 360 mg group, PPS, 52 weeks of treatment vs baseline, all subjects
[10] = 360 mg group, PPS, 52 weeks of treatment, all subjects

Cc1ccc(=O)n(-c2ccc(O)cc2)c1 [hydronidone]
Ishak score 4 points, n(%) [1]: 5(20.00) n(%)
Ishak score 5 points, n(%) [1]: 5(20.00) n(%)
Ishak score 6 points, n(%) [1]: 2(8.00) n(%)
Ishak score change, Baseline-52 weeks of treatment, Mean (SD) [2]: 0.91(1.15)
Ishak score change, Baseline-52 weeks of treatment, Median [2]: 1.00
Ishak score decreased by <1, n(%) [3]: 7(28.00) n(%)
Ishak score decreased by ≥1, n(%) [3]: 18(72.00) n(%)
Rate difference (B-C) % and 95% CI, Ishak score decreased by ≥1 (FAS, all subjects): 3.43(−17.12, 23.60) %
Rate difference (B-C) % and 95% CI, Ishak score decreased by ≥1 (FAS, baseline Ishak score ≥3): 4.45(−20.88, 29.28) %
Rate difference (B-C) % and 95% CI, Ishak score decreased by ≥1 (PPS, all subjects): 5.72(−16.89, 27.53) %
Rate difference (B-C) % and 95% CI, Ishak score decreased by ≥1 (PPS, baseline Ishak score ≥3): 8.91(−17.46, 34.07) %
Rate difference (B-D) % and 95% CI, Ishak score decreased by ≥1 (FAS, all subjects): −12.20(−32.01, 9.10) %
Rate difference (B-D) % and 95% CI, Ishak score decreased by ≥1 (FAS, baseline Ishak score ≥3): −5.67(−29.01, 18.67) %
Rate difference (B-D) % and 95% CI, Ishak score decreased by ≥1 (PPS, all subjects): −12.77(−33.83, 9.98) %
Rate difference (B-D) % and 95% CI, Ishak score decreased by ≥1 (PPS, baseline Ishak score ≥3): −4.00(−27.91, 20.54) %
Ishak score decreased by <1, n(%) [4]: 23(56.10) n(%)
Ishak score decreased by ≥1, n(%) [4]: 18 (43.90%) n(%) and 18(43.90) n(%)
Hepatic fibrosis Ishak score, Mean (SD) [5]: 2.83(1.45)
Hepatic fibrosis Ishak score, Median [5]: 3.00
Ishak score 0 point, n(%) [5]: 0(0.00) n(%)
Ishak score 1 point, n(%) [5]: 10(24.39) n(%)
Ishak score 2 points, n(%) [5]: 8(19.51) n(%)
Ishak score 3 points, n(%) [5]: 9(21.95) n(%)
Ishak score 4 points, n(%) [5]: 8(19.51) n(%)
Ishak score 5 points, n(%) [5]: 5(12.20) n(%)
Ishak score 6 points, n(%) [5]: 1(2.44) n(%)
Progressive Ishak score (increases by ≥1 compared with the baseline) [5]: 5 (12.20%) n(%) and 5(12.20) n(%)
Reversed Ishak score (decreases by ≥1 point compared with the baseline) [5]: 18(43.90) n(%)
Stable Ishak score (unchanged compared with the baseline) [5]: 18 (43.90%) n(%) and 18(43.90) n(%)
Ishak score 0 point, n(%) [6]: 0(0.00) n(%)
Ishak score 1 point, n(%) [6]: 4(13.79) n(%)
Ishak score 2 points, n(%) [6]: 4(13.79) n(%)
Ishak score 3 points, n(%) [6]: 8(27.59) n(%)
Ishak score 4 points, n(%) [6]: 7(24.14) n(%)
Ishak score 5 points, n(%) [6]: 5(17.24) n(%)
Ishak score 6 points, n(%) [6]: 1(3.45) n(%)
Ishak score change, Baseline-52 weeks of treatment, Mean (SD) [7]: 0.56(1.25)
Ishak score change, Baseline-52 weeks of treatment, Median [7]: 0.00
Ishak score decreased by <1, n(%) [8]: 12(41.38) n(%)
Ishak score decreased by ≥1, n(%) [8]: 17(58.62) n(%)
Ishak score decreased by <1, n(%) [9]: 16(47.06) n(%)
Ishak score decreased by ≥1, n(%) [9]: 18 (52.94%) n(%) and 18(52.94) n(%)
Hepatic fibrosis Ishak score, Mean (SD) [10]: 2.82(1.49)
Hepatic fibrosis Ishak score, Median [10]: 3.00
Ishak score 0 point, n(%) [10]: 0(0.00) n(%)
Ishak score 1 point, n(%) [10]: 9(26.47) n(%)
Ishak score 2 points, n(%) [10]: 6(17.65) n(%)
Ishak score 3 points, n(%) [10]: 7(20.59) n(%)
Ishak score 4 points, n(%) [10]: 7(20.59) n(%)
Ishak score 5 points, n(%) [10]: 4(11.76) n(%)
Ishak score 6 points, n(%) [10]: 1(2.94) n(%)
Progressive Ishak score (increases by ≥1 compared with the baseline) [10]: 5 (14.71%) n(%) and 5(14.71) n(%)
